Test [1] concerns IL-7R and pStat5 in Lmo2^Tg DN3a cells. In words: IL-7R internalization assay and pStat5 in Lmo2^Tg DN3a cells after IL-7. It counts as cell-based, mouse. The note with it: +IL-7, 0.2 μM Dynole 34-2. The protocol:
Phosphoflow analysis was performed as previously described. Briefly, 2 × 10^6 cells stained for surface markers were subsequently resuspended into PBS 1× + 4% v/v paraformaldehyde and incubated for 10 min at 4 °C for fixation. Fixed cells were washed twice using PBS 1×, then resuspended in pre-chilled at −20 °C Perm Buffer III (BD Pharmingen) and incubated 30 min at 4 °C for permeabilization. Cells were washed twice using PBS 1× and incubated overnight at 4 °C in PBS 1× + 2% v/v fetal calf serum (FCS) with Cell Signalling purified antibodies (Genesearch Pty Ltd, Arundel QLD, Australia) against pSTAT5 (Tyr694; #9359), phospho-p38 MAPK (Thr180/Tyr182; #4511), phospho-p44/42 (Erk1/2; #9102), phospho-S6 (Ser235/236; #4856) and phospho-Akt (Ser473; #9271) or isotype control. […] Fluorescence-activated cell sorting (FACS) analysis was performed using LSRII and LSR Fortessa cytometers, following the gating strategies described in Supplementary Fig. 11. […]
For in vitro IL-7 stimulation assays, cells were starved in serum-free DMEM at 37 °C, then incubated with either vehicle or Dynole 34-2 or Ruxolitinib (INCB018424; #S1378, Selleckchem), or DAPT (GSI-IX; #S2215, Selleckchem) resuspended in DMSO for 1 h. […] The analysis was performed in triplicate and the mean fluorescence intensity (MFI) observed without stimulation was reported as 100%.

In test [2] the test system is pSTAT5 and HES1 in ETP12 and ALL8 patient-derived cells. In words: pSTAT5 and HES1 in ETP12 and ALL8 cells harvested from treated recipients. It counts as in vivo, human. On the procedure:
Phosphoflow analysis was performed as previously described. Briefly, 2 × 10^6 cells stained for surface markers were subsequently resuspended into PBS 1× + 4% v/v paraformaldehyde and incubated for 10 min at 4 °C for fixation. Fixed cells were washed twice using PBS 1×, then resuspended in pre-chilled at −20 °C Perm Buffer III (BD Pharmingen) and incubated 30 min at 4 °C for permeabilization. Cells were washed twice using PBS 1× and incubated overnight at 4 °C in PBS 1× + 2% v/v fetal calf serum (FCS) with Cell Signalling purified antibodies (Genesearch Pty Ltd, Arundel QLD, Australia) against pSTAT5 (Tyr694; #9359), phospho-p38 MAPK (Thr180/Tyr182; #4511), phospho-p44/42 (Erk1/2; #9102), phospho-S6 (Ser235/236; #4856) and phospho-Akt (Ser473; #9271) or isotype control. For intracellular HES1 detection, cells stained for surface markers were subsequently fixed and permeabilized using the BD Cytofix/Cytoperm^TM Kit and incubated overnight at 4 °C in PBS 1× + 2% v/v FCS with a purified antibody against HES1 (D6PU; #11988, Cell Signalling) or isotype control. After staining with primary antibodies for phosphoflow or intracellular detection, cells were incubated in permeabilization buffer with donkey Alexa Fluor 488-conjugated anti-rabbit secondary antibody (A-21206, lot #1910751, Molecular Probes, Invitrogen) or goat Alexa Fluor 546-conjugated anti-rabbit secondary antibody (A-11035, lot #1904467, Molecular Probes, Invitrogen) for 1 h on ice, and washed twice in PBS 1×. Fluorescence-activated cell sorting (FACS) analysis was performed using LSRII and LSR Fortessa cytometers, following the gating strategies described in Supplementary Fig. 11. Cell sorting was performed with a FACSAria or BD Influx.
Patient-derived xenograft models were established as previously described[97],[98]. […] For transplantation assays, 10^6 splenocytes harvested from successfully engrafted primary human ETP-ALL or T-ALL xenografts were injected into nonobese diabetic/severe combined immunodeficient (NOD.Cg-Prkdc^scid, also termed NOD/SCID) or NOD/SCID/Il2rg^tm1wjl/SzJ (NSG) mice[99]. Moreover, 1.5 × 10^6 cells splenocytes harvested from successfully engrafted patient-derived AML xenografts were injected into nonobese diabetic/severe immunodeficient (NOD.Cg-Rag1^tm1MomIl2rg^tm1wjl/SzJ, also termed NRG) mice expressing human IL-3, human GM-CSF and human SCF from the SGM3 triple transgene (NRGS)[100]. Engraftment into recipients was monitored by FACS analysis of peripheral blood as previously described. […] The in vivo efficacy of Dynole 34-2 was assessed 24 h after the last injection by FACS analysis and immunohistochemistry as described in Supplementary Methods. […]

Several values for one entry are separate records, joined by “and”; a condition that tells them apart may be missing. Equal entries are not always repeated.

Turning to `CCCCCCCCNC(=O)C(C#N)=Cc1cn(CCCN(C)C)c2ccccc12` [Dynole 34-2, 2-Cyano-N-octyl-3-(1-(3-dimethylaminopropyl)-1H-indol-3-yl)-acrylamide], in test [1], the “IL-7R (MFI)” value is 14813 MFI and 16581 MFI and 16466 MFI; the “pStat5 (MFI)” value was 2583 MFI and 1903 MFI and 3336 MFI and 3007 MFI. Besides, in test [2] (PDX ALL8), the “HES1 (MFI) in human CD45+ cells” value was 1836 MFI and 2160 MFI and 2094 MFI; the “pSTAT5 (MFI) in human CD45+ cells” value was 2379 MFI and 2645 MFI and 2581 MFI. Besides, in test [2] (PDX ETP12), the “HES1 (MFI) in human CD45+ cells” value was 8443 MFI and 7622 MFI and 8597 MFI and 6696 MFI and 10495 MFI and 10443 MFI; the “pSTAT5 (MFI) in human CD45+ cells” value is 4191 MFI and 3709 MFI and 3790 MFI.
